Test system: lameness in horses
Experiment: double-blind placebo controlled crossover clinical trial on lameness in horses
Assay type: in vivo
Description: A crossover double blind and randomised study was designed to evaluate the efficacy of GLM lipid extract and HA alone and in combination in the treatment of lameness in horses.
Qualifying horses were initially examined and randomly assigned to receive four capsules of the placebo, or containing 50 mg GLM, or 50 mg Hyaluronate, or a mixture of 50 mg GLM and 50 mg Hyaluronate daily. Randomisation was computer generated in balanced blocks of the four treatment regimes and was crossover in design. No other medications were administered.
Evaluations of arthritic/musculoskeletal signs were carried out by a veterinarian and research assistant at wk 0 and every two weeks thereafter until the end of the trial. All parameters were scored on a scale of 1 to 10 according to severity and symptom improvement where 1 was severe disease symptomology and 10 indicated a disease free condition score and the results are shown in Table 1 and FIG. 4.
Each horse was scored for mobility (average of individual scores for lameness in walking, trotting, turning and any other musculoskeletal abnormality). Individual joints (neck, back, carpus, elbow and shoulder or tarsus, stifle and hip) of each limb were individually scored for degree of pain, swelling, crepitus and reduction in range of movement. Horses were also filmed for gait analysis and scored. Summation of the mobility score and all individual joint scores for each horse comprised their total arthritic/musculoskeletal score.

In the case of Hyaluronic acid [Hyaluronate], the “mean clinical lameness score, Mid Phase 14 Days” value (four capsules daily, 14 days, scale 1 (severe) to 10 (disease free), Mean ± SEM) is reported as 2.6 ± 0.47^be, the “mean clinical lameness score, End Phase 28 Days” value (four capsules daily, 28 days, scale 1 (severe) to 10 (disease free), Mean ± SEM) is reported as 2.8 ± 0.48^ef and the “effect on degree of lameness / locomotory score (in words)” value (within 2 weeks / 14 days of treatment) is reported as “little influence on it own”.
